Experimental data published in patent US8822517B2, “Arylosulfonamides for the treatment of CNS diseases” (Adamed SP. Z O.O., priority 2010, dated 2014).

Legend:
muscarinic M3 receptor = target: T1, muscarinic M3 receptor (Homo sapiens, UniProt P20309); assay: Binding assay M3 (h), [3H]4-DAMP, CHO cells; conditions: read-out: M3 [%]
T1 construct: expressed in transfected cells; host or cells: CHO cells
Summary of the method: (§1)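 Specific ligand binding was taken as total minus non-specific binding, with the latter defined in the presence of surplus unlabelled ligand. Each compound was tested at a single 1×10^−6 M concentration.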

[1] = target: serotoninergic 5-HT7 receptor (Homo sapiens, UniProt P34969); assay: Binding assay 5-HT7 (h), [3H]LSD, CHO cells; design: expressed in transfected cells; host or cells: CHO cells; conditions: read-out: 5-HT7
Chain of serotoninergic 5-HT7 receptor (P34969 whole entry): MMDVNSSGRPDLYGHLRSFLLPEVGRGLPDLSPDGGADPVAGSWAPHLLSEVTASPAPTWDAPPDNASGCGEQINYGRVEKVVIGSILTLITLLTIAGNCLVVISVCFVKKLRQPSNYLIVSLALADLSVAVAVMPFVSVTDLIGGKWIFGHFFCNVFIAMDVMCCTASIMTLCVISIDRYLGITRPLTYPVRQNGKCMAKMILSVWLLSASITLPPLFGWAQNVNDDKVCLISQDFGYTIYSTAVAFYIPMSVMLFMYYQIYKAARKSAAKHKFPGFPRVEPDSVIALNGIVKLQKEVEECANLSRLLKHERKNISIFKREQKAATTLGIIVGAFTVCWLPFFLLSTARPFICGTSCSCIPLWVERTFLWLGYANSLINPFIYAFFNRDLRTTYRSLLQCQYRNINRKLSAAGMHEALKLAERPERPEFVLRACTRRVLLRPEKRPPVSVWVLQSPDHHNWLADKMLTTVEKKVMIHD
Summary of the method: as §1

[2] = target: serotoninergic 5-HT2A receptor (Homo sapiens, UniProt P28223); assay: Binding assay 5-HT2A (h), [3H]ketanserin, HEK-293 cells; design: expressed in transfected cells; host or cells: HEK-293 cells; conditions: read-out: 5-HT2A
Chain of serotoninergic 5-HT2A receptor (P28223 whole entry): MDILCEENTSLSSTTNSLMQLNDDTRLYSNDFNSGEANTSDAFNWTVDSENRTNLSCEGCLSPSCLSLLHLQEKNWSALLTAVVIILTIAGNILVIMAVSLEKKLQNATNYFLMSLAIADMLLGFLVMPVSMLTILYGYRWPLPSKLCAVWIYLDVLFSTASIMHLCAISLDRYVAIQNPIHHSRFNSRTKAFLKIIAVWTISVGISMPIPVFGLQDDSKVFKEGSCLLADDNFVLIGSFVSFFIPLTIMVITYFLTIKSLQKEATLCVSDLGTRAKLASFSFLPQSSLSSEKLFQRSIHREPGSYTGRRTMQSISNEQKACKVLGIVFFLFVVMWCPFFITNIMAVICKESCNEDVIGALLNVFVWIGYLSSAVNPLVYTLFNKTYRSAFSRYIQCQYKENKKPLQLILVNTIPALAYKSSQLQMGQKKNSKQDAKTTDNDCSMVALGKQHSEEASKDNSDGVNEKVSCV
Summary of the method: as §1

adrenergic α2C receptor = target: T2, adrenergic α2C receptor (Homo sapiens, UniProt P18825); assay: Binding assay α2C (h), [3H]RX 821002, CHO cells; design: expressed in transfected cells; host or cells: CHO cells; conditions: read-out: α2C [%]
T2 sequence (P18825 1-462): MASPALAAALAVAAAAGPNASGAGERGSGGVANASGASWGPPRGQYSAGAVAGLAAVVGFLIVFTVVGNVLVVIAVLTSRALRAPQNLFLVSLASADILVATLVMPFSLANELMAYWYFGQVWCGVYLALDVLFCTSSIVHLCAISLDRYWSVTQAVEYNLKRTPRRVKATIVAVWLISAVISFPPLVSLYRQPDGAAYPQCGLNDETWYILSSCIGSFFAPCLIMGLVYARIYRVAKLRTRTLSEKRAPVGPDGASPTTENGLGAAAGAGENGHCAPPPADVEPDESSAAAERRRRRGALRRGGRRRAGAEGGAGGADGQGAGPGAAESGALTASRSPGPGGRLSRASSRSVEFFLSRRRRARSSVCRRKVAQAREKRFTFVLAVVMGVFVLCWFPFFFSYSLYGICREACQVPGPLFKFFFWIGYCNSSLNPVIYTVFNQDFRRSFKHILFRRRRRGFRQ
Summary of the method: as §1

dopaminergic D2 receptor = dopaminergic D2 receptor (Homo sapiens, UniProt P14416); assay: Binding assay D2S (h), [3H]methyl-spiperone, HEK-293 cells; design: expressed in transfected cells; host or cells: HEK-293 cells; conditions: read-out: D2 [%]
Chain of dopaminergic D2 receptor (P14416 1-414 isoform P14416-2): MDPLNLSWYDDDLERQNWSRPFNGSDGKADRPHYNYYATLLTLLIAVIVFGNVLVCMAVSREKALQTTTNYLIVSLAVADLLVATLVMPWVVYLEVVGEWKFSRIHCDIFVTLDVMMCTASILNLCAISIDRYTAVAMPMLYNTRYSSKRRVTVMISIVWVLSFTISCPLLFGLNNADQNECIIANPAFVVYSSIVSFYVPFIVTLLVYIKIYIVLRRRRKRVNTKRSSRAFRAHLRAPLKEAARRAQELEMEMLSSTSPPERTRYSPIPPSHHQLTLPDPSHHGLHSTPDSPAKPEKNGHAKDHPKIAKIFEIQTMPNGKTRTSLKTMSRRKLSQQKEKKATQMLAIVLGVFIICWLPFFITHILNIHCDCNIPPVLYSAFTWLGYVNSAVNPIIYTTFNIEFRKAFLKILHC
Summary of the method: as §1

[3] = target: histaminergic H1 receptor (Homo sapiens, UniProt P35367); assay: Binding assay H1 (h), [3H]pyrilamine, HEK-293 cells; design: expressed in transfected cells; host or cells: HEK-293 cells; conditions: read-out: H1 [%]
Chain of histaminergic H1 receptor (P35367 whole entry): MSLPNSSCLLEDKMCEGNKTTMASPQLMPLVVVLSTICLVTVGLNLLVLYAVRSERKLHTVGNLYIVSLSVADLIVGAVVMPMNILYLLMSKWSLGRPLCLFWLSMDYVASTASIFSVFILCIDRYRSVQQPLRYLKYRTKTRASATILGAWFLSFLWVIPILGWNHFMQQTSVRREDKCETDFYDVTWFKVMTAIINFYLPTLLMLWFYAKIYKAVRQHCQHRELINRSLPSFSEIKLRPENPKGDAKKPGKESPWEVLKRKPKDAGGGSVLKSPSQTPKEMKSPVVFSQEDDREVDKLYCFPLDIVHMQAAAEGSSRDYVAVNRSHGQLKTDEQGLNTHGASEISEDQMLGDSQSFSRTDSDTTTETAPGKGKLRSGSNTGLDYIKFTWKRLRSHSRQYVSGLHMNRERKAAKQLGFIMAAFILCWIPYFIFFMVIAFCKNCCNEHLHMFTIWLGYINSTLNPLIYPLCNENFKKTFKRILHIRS
Summary of the method: as §1

[4] = target: T3, serotoninergic 5-HT1A receptor (Homo sapiens, UniProt P08908); assay: Binding assay 5-HT1A (h), [3H]8-OH-DPAT, HEK-293 cells; design: expressed in transfected cells; host or cells: HEK-293 cells; conditions: read-out: 5-HT1A
T3 sequence (P08908 1-422): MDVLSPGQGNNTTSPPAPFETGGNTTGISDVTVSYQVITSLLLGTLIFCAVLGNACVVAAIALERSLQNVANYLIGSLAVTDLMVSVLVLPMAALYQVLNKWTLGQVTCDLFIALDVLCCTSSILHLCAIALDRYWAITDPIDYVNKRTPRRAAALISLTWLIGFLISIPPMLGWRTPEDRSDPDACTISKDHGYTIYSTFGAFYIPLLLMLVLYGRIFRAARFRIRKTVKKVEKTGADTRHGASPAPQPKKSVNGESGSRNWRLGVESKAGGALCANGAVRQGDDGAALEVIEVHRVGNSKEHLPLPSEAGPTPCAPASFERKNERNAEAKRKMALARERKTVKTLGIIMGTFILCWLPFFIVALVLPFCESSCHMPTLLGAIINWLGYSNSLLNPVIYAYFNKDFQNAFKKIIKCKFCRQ
Summary of the method: as §1

adrenergic α1 receptor = assay: Binding assay α1 (non-selective), [3H]prazosin, rat cerebral cortex; conditions: percent inhibition of control specific binding; compounds tested at 1×10^−6 M
Summary of the method: as §1

[5] = target: T4, serotonine transporter (SERT) receptor (Homo sapiens, UniProt P31645); assay: Binding assay SERT (h), [3H]imipramine, CHO cells; conditions: read-out: SERT [%]
T4 construct: expressed in transfected cells; host or cells: CHO cells
T4 sequence (P31645 whole entry): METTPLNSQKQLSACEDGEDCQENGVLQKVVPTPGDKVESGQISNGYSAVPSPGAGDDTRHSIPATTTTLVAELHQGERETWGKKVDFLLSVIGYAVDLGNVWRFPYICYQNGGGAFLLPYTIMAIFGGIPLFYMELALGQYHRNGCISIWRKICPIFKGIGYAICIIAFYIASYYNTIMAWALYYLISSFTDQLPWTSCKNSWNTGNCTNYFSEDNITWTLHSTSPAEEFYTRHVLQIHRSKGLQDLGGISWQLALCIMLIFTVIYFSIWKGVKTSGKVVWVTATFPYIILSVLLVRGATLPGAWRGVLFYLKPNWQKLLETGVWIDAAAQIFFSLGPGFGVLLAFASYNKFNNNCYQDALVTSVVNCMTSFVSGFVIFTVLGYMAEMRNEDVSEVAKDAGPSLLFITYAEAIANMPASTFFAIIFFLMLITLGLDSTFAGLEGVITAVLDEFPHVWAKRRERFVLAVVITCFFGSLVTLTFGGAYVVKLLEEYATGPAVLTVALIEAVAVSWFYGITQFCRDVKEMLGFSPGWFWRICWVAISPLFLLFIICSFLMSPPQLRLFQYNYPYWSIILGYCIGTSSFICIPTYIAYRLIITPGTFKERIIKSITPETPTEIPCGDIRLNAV
Summary of the method: as §1

[6] = target: T5, serotoninergic receptor 5-HT2C (Homo sapiens, UniProt P28335); assay: Binding assay 5-HT2C (h), [3H]mesulergine, HEK-293 cells; conditions: read-out: 5-HT2C [%]
T5 construct: expressed in transfected cells; host or cells: HEK-293 cells
T5 sequence (P28335 33-458): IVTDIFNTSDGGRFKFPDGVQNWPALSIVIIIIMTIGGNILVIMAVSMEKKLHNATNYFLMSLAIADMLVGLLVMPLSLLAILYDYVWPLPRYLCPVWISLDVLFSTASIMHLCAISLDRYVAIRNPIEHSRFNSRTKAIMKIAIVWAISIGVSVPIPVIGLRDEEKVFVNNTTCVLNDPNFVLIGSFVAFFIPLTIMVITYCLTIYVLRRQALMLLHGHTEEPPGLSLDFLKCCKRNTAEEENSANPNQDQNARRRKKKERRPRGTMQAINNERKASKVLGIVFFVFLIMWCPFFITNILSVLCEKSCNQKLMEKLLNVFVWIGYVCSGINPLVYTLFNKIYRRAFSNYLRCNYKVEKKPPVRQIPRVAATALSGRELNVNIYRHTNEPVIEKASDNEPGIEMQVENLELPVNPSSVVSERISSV
Summary of the method: as §1

sigma σ receptor = assay: Binding assay σ (non-selective), [3H]DTG, rat cerebral cortex; conditions: percent inhibition of control specific binding; compounds tested at 1×10^−6 M
Summary of the method: as §1

[7] = target: serotoninergic 5-HT6 receptor (Homo sapiens, UniProt P50406); assay: Binding assay 5-HT6 (h), [3H]LSD, CHO cells; design: expressed in transfected cells; host or cells: CHO cells; conditions: read-out: 5-HT6
Chain of serotoninergic 5-HT6 receptor (P50406 whole entry): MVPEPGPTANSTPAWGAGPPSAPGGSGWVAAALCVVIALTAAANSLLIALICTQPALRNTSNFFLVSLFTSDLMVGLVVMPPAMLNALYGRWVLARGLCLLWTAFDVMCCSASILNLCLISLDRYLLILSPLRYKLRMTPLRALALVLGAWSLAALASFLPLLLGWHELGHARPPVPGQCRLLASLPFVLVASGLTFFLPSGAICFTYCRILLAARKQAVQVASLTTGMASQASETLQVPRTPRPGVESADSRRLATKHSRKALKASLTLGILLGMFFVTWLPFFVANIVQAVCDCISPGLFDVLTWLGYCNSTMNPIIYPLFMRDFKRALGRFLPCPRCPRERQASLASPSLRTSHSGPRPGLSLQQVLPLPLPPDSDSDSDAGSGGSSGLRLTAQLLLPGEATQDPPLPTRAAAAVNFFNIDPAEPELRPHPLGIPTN
Summary of the method: as §1

dopaminergic D3 receptor = dopaminergic D3 receptor (Homo sapiens, UniProt P35462); assay: Binding assay D3 (h), [3H]methyl-spiperone, CHO cells; design: expressed in transfected cells; host or cells: CHO cells; conditions: read-out: D3 [%]
Chain of dopaminergic D3 receptor (P35462 whole entry): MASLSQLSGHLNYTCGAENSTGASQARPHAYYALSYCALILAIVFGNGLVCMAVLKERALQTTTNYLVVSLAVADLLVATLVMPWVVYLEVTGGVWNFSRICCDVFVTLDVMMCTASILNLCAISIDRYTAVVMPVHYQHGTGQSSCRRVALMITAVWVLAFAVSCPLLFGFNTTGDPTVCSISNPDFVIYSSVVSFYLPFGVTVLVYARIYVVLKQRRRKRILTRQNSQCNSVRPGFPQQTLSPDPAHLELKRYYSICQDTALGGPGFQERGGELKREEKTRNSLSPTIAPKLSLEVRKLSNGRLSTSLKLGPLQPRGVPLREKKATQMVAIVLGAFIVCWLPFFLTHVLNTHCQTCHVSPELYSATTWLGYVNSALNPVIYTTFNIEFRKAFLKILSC
Summary of the method: as §1

T1 sequence (P20309 whole entry): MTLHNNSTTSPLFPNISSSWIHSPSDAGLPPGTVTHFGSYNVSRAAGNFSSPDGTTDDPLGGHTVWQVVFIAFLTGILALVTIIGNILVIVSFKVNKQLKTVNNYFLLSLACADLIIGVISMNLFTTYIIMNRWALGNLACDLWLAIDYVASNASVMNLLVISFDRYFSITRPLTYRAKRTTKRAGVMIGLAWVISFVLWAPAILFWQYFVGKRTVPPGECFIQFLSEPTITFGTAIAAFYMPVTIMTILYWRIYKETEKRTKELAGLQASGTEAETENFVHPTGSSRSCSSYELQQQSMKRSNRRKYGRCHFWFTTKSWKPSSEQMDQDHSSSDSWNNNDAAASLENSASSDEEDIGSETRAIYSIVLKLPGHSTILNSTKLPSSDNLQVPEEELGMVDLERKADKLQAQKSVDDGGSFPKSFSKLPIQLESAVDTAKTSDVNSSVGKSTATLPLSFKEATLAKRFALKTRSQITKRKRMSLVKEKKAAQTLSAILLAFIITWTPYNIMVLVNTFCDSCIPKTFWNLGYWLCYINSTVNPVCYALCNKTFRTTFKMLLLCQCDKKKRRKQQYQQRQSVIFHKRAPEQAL

Compound | inhibition at 1 µM (muscarinic M3 receptor) [%] | inhibition at 1 µM [1] [%] | inhibition at 1 µM [2] [%] | inhibition at 1 µM (adrenergic α2C receptor) [%] | inhibition at 1 µM (dopaminergic D2 receptor) [%] | inhibition at 1 µM [3] [%] | inhibition at 1 µM [4] [%] | α1 [%] (adrenergic α1 receptor) | inhibition at 1 µM [5] [%] | inhibition at 1 µM [6] [%] | σ [%] (sigma σ receptor) | inhibition at 1 µM [7] [%] | inhibition at 1 µM (dopaminergic D3 receptor) [%]
O=S(=O)(NCCCN1CCN(c2nsc3ccccc23)CC1)c1ccc2cn[nH]c2c1 [Compound 268, N-[3-[4-(1,2-Benzothiazol-3-yl)piperazin-1-yl]propyl]-1H-indazole-6-sulphonamide] | 14 | 99 | 102 | 99 | 98 | 95 | 98 | 90 | 86 | 78 | 30 | 93 | 98
O=S(=O)(NCCCN1CCN(c2nsc3ccccc23)CC1)c1ccc2c(c1)OCO2 [Compound 269, N-[3-[4-(1,2-Benzothiazol-3-yl)piperazin-1-yl]propyl]-1,3-benzodioxole-5-sulphonamide] | 20 | 101 | 101 | 101 | 99 | 92 | 99 | 97 | 96 | 92 | 49 | 98 | 100
O=S(=O)(NCCCCN1CCC(c2noc3cc(F)ccc23)CC1)c1ccc(F)c(F)c1 [Compound 295, 3,4-Difluoro-N-[4-[4-(6-fluoro-1,2-benzoxazol-3-yl)piperidin-1-yl]butyl]benzenesulphonamide] | 19 | 99 | 99 | 97 | 95 | 95 | 68 | 96 | 16 | 51 | 63 | 93 | 98
COc1cccc(S(=O)(=O)NCCCCN2CCC(c3noc4cc(F)ccc34)CC2)c1 [Compound 300, N-[4-[4-(6-Fluoro-1,2-benzoxazol-3-yl)piperidin-1-yl]butyl]-3-methoxybenzenesulphonamide] | 18 | 99 | 102 | 94 | 96 | 87 | 80 | 96 | 30 | 49 | 83 | 89 | 96
CC(C)(C)c1ccc(S(=O)(=O)NCCCCN2CCC(c3noc4cc(F)ccc34)CC2)cc1 [Compound 301, 4-tert-Butyl-N-[4-[4-(6-fluoro-1,2-benzoxazol-3-yl)piperidin-1-yl]butyl]benzenesulphonamide] | 18 | 98 | 101 | 98 | 96 | 88 | 77 | 96 | 45 | 79 | 73 | 94 | 96
O=S(=O)(NCCCCN1CCC(c2noc3cc(F)ccc23)CC1)c1ccc(Cl)s1 [Compound 308, 5-Chloro-N-[4-[4-(6-fluoro-1,2-benzoxazol-3-yl)piperidin-1-yl]butyl]thiophene-2-sulphonamide] | 30 | 99 | 102 | 96 | 96 | 92 | 81 | 91 | 28 | 57 | 86 | 83 | 95
Cc1c(S(=O)(=O)NCCCCN2CCC(c3noc4cc(F)ccc34)CC2)sc2ccc(Cl)cc12 [Compound 315, 5-Chloro-N-[4-[4-(6-fluoro-1,2-benzoxazol-3-yl)piperidin-1-yl]butyl]-3-methylbenzothiophene-2-sulphonamide] | 24 | 98 | 102 | 93 | 99 | 90 | 70 | −13 | 68 | 78 | 72 | 98 | 97
O=S(=O)(NCCCCN1CCC(c2noc3cc(F)ccc23)CC1)c1cc2ccccc2o1 [Compound 316, N-[4-[4-(6-Fluoro-1,2-benzoxazol-3-yl)piperidin-1-yl]butyl]benzofuran-2-sulphonamide] | 28 | 97 | 102 | 94 | 98 | 85 | 84 | 90 | 47 | 66 | 81 | 93 | 95
O=S(=O)(NCCCCN1CCC(c2noc3cc(F)ccc23)CC1)c1ccc2c(c1)OCO2 [Compound 320, N-[4-[4-(6-Fluoro-1,2-benzoxazol-3-yl)piperidin-1-yl]butyl]-1,3-benzodioxole-5-sulphonamide] | 24 | 99 | 101 | 101 | 100 | 84 | 69 | 98 | 13 | 46 | 80 | 82 | 99
